Experimental data taken from PubChem BioAssay (NCI).
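Where inhibition never reached the appropriate level, the endpoint shown equals the highest concentration tested. Otherwise, values were interpolated linearly from a five-concentration, 48-hour dose response in 96-well plates. TGI is the concentration that stops growth completely.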

system: HOP-62 NSCLC; experiment: NCI-60 cell line screen, 48 h

In the case of `CC1=C(C)C(=O)C(C2=C(C3=CC(=O)C(C)=C(C)C3=O)C(=O)C(C)=C(C)C2=O)=CC1=O`, the TGI was 36.5 µM.

system: HOP-92 NSCLC; experiment: NCI-60 cell line screen, 48 h

`COc1ccc(Cc2c(N)[nH]c(=O)[nH]c2=O)cc1` and `OCc1cc2c([nH]c3ccccc32)c(C(O)CO)n1` (stereo unspecified) cannot be ordered by TGI: over 100 µM for the first, over 100 µM for the second.

With `CC1=C(C)C(=O)C(C2=C(C3=CC(=O)C(C)=C(C)C3=O)C(=O)C(C)=C(C)C2=O)=CC1=O` the TGI was over 51.2 µM.

system: HS 578T breast; experiment: NCI-60 cell line screen, 48 h

`COc1ccc(Cc2c(N)[nH]c(=O)[nH]c2=O)cc1` and `OCc1cc2c([nH]c3ccccc32)c(C(O)CO)n1` (stereo unspecified) cannot be ordered by TGI: over 100 µM for the first, over 100 µM for the second.

First: O=C1c2c(O)ccc(O)c2C(=O)c2c(NCCNC(=O)C(O)C(O)C(O)C(O)CO)ccc(NCCNC(=O)C(O)C(O)C(O)C(O)CO)c21 (stereo unspecified)
Second: CC1=C(C)C(=O)C(C2=C(C3=CC(=O)C(C)=C(C)C3=O)C(=O)C(C)=C(C)C2=O)=CC1=O
The TGI of the first is lower: 2.7 µM for the first, over 79.7 µM for the second.

For `CN1C(=O)C(/C=N/NC(=O)c2cccnc2)C(N)N(C)C1=O` (stereo unspecified), the TGI was over 100 µM.

system: HT29 colon; experiment: NCI-60 cell line screen, 48 h

`COc1ccc(Cc2c(N)[nH]c(=O)[nH]c2=O)cc1` and `OCc1cc2c([nH]c3ccccc32)c(C(O)CO)n1` (stereo unspecified) cannot be ordered by TGI: over 100 µM for the first, over 100 µM for the second.

Compared with `O=C1c2c(O)ccc(O)c2C(=O)c2c(NCCNC(=O)C(O)C(O)C(O)C(O)CO)ccc(NCCNC(=O)C(O)C(O)C(O)C(O)CO)c21` (stereo unspecified), `CC1=C(C)C(=O)C(C2=C(C3=CC(=O)C(C)=C(C)C3=O)C(=O)C(C)=C(C)C2=O)=CC1=O` is 23-fold higher in TGI: 0.399 µM for the first, 9.02 µM for the second.

In the case of `CN1C(=O)C(/C=N/NC(=O)c2cccnc2)C(N)N(C)C1=O` (stereo unspecified), the TGI was over 100 µM.

system: IGROV1 ovarian; experiment: NCI-60 cell line screen, 48 h

`COc1ccc(Cc2c(N)[nH]c(=O)[nH]c2=O)cc1` and `OCc1cc2c([nH]c3ccccc32)c(C(O)CO)n1` (stereo unspecified) cannot be ordered by TGI: over 100 µM for the first, over 100 µM for the second.

Going from `O=C1c2c(O)ccc(O)c2C(=O)c2c(NCCNC(=O)C(O)C(O)C(O)C(O)CO)ccc(NCCNC(=O)C(O)C(O)C(O)C(O)CO)c21` (stereo unspecified) to `CC1=C(C)C(=O)C(C2=C(C3=CC(=O)C(C)=C(C)C3=O)C(=O)C(C)=C(C)C2=O)=CC1=O`, the TGI rises from 1.45 µM to 31.2 µM (22-fold).

`CN1C(=O)C(/C=N/NC(=O)c2cccnc2)C(N)N(C)C1=O` (stereo unspecified) gave a TGI of over 100 µM.

system: K-562 leukemia; experiment: NCI-60 cell line screen, 48 h

`COc1ccc(Cc2c(N)[nH]c(=O)[nH]c2=O)cc1` and `OCc1cc2c([nH]c3ccccc32)c(C(O)CO)n1` (stereo unspecified) cannot be ordered by TGI: over 100 µM for the first, over 100 µM for the second.

Work on `CN1C(=O)C(/C=N/NC(=O)c2cccnc2)C(N)N(C)C1=O` (stereo unspecified) yielded a TGI of over 100 µM.

system: KM12 colon; experiment: NCI-60 cell line screen, 48 h

`COc1ccc(Cc2c(N)[nH]c(=O)[nH]c2=O)cc1` and `OCc1cc2c([nH]c3ccccc32)c(C(O)CO)n1` (stereo unspecified) cannot be ordered by TGI: over 100 µM for the first, over 100 µM for the second.

Compared with `O=C1c2c(O)ccc(O)c2C(=O)c2c(NCCNC(=O)C(O)C(O)C(O)C(O)CO)ccc(NCCNC(=O)C(O)C(O)C(O)C(O)CO)c21` (stereo unspecified), `CC1=C(C)C(=O)C(C2=C(C3=CC(=O)C(C)=C(C)C3=O)C(=O)C(C)=C(C)C2=O)=CC1=O` is 57-fold higher in TGI: 0.534 µM for the first, 30.4 µM for the second.

In the case of `CN1C(=O)C(/C=N/NC(=O)c2cccnc2)C(N)N(C)C1=O` (stereo unspecified), the TGI was over 100 µM.

system: LOX IMVI melanoma; experiment: NCI-60 cell line screen, 48 h

`COc1ccc(Cc2c(N)[nH]c(=O)[nH]c2=O)cc1` and `OCc1cc2c([nH]c3ccccc32)c(C(O)CO)n1` (stereo unspecified) cannot be ordered by TGI: over 100 µM for the first, over 100 µM for the second.

With `CC1=C(C)C(=O)C(C2=C(C3=CC(=O)C(C)=C(C)C3=O)C(=O)C(C)=C(C)C2=O)=CC1=O` the TGI was over 21.3 µM.

system: M14 melanoma; experiment: NCI-60 cell line screen, 48 h

`COc1ccc(Cc2c(N)[nH]c(=O)[nH]c2=O)cc1` and `OCc1cc2c([nH]c3ccccc32)c(C(O)CO)n1` (stereo unspecified) cannot be ordered by TGI: over 100 µM for the first, over 100 µM for the second.

First: O=C1c2c(O)ccc(O)c2C(=O)c2c(NCCNC(=O)C(O)C(O)C(O)C(O)CO)ccc(NCCNC(=O)C(O)C(O)C(O)C(O)CO)c21 (stereo unspecified)
Second: CC1=C(C)C(=O)C(C2=C(C3=CC(=O)C(C)=C(C)C3=O)C(=O)C(C)=C(C)C2=O)=CC1=O
The TGI of the first is lower: 1.39 µM for the first, over 40.7 µM for the second.

Compound `CN1C(=O)C(/C=N/NC(=O)c2cccnc2)C(N)N(C)C1=O` (stereo unspecified) has a TGI of over 100 µM.

system: MALME-3M melanoma; experiment: NCI-60 cell line screen, 48 h

`COc1ccc(Cc2c(N)[nH]c(=O)[nH]c2=O)cc1` and `OCc1cc2c([nH]c3ccccc32)c(C(O)CO)n1` (stereo unspecified) cannot be ordered by TGI: over 100 µM for the first, over 100 µM for the second.

Going from `O=C1c2c(O)ccc(O)c2C(=O)c2c(NCCNC(=O)C(O)C(O)C(O)C(O)CO)ccc(NCCNC(=O)C(O)C(O)C(O)C(O)CO)c21` (stereo unspecified) to `CC1=C(C)C(=O)C(C2=C(C3=CC(=O)C(C)=C(C)C3=O)C(=O)C(C)=C(C)C2=O)=CC1=O`, the TGI rises from 2.65 µM to 11.4 µM (4.3-fold).

`CN1C(=O)C(/C=N/NC(=O)c2cccnc2)C(N)N(C)C1=O` (stereo unspecified) gave a TGI of over 100 µM.

system: MCF7 breast; experiment: NCI-60 cell line screen, 48 h

Going from `O=C1c2c(O)ccc(O)c2C(=O)c2c(NCCNC(=O)C(O)C(O)C(O)C(O)CO)ccc(NCCNC(=O)C(O)C(O)C(O)C(O)CO)c21` (stereo unspecified) to `OCc1cc2c([nH]c3ccccc32)c(C(O)CO)n1` (stereo unspecified), the TGI rises from 0.243 µM to over 100 µM.

`CN1C(=O)C(/C=N/NC(=O)c2cccnc2)C(N)N(C)C1=O` (stereo unspecified) and `CC1=C(C)C(=O)C(C2=C(C3=CC(=O)C(C)=C(C)C3=O)C(=O)C(C)=C(C)C2=O)=CC1=O` cannot be ordered by TGI: over 100 µM for the first, over 21.1 µM for the second.

system: MDA-MB-231 breast; experiment: NCI-60 cell line screen, 48 h

`COc1ccc(Cc2c(N)[nH]c(=O)[nH]c2=O)cc1` and `OCc1cc2c([nH]c3ccccc32)c(C(O)CO)n1` (stereo unspecified) cannot be ordered by TGI: over 100 µM for the first, over 100 µM for the second.

Compared with `O=C1c2c(O)ccc(O)c2C(=O)c2c(NCCNC(=O)C(O)C(O)C(O)C(O)CO)ccc(NCCNC(=O)C(O)C(O)C(O)C(O)CO)c21` (stereo unspecified), `CC1=C(C)C(=O)C(C2=C(C3=CC(=O)C(C)=C(C)C3=O)C(=O)C(C)=C(C)C2=O)=CC1=O` is 8.4-fold higher in TGI: 0.633 µM for the first, 5.29 µM for the second.

For `CN1C(=O)C(/C=N/NC(=O)c2cccnc2)C(N)N(C)C1=O` (stereo unspecified), the TGI was over 100 µM.

system: MDA-MB-435; experiment: NCI-60 cell line screen, 48 h

`COc1ccc(Cc2c(N)[nH]c(=O)[nH]c2=O)cc1` and `OCc1cc2c([nH]c3ccccc32)c(C(O)CO)n1` (stereo unspecified) cannot be ordered by TGI: over 100 µM for the first, over 100 µM for the second.

Compared with `CN1C(=O)C(/C=N/NC(=O)c2cccnc2)C(N)N(C)C1=O` (stereo unspecified), `CC1=C(C)C(=O)C(C2=C(C3=CC(=O)C(C)=C(C)C3=O)C(=O)C(C)=C(C)C2=O)=CC1=O` is lower in TGI: over 100 µM for the first, 14.2 µM for the second.

system: MDA-N; experiment: NCI-60 cell line screen, 48 h

`COc1ccc(Cc2c(N)[nH]c(=O)[nH]c2=O)cc1` and `OCc1cc2c([nH]c3ccccc32)c(C(O)CO)n1` (stereo unspecified) cannot be ordered by TGI: over 100 µM for the first, over 100 µM for the second.

Going from `O=C1c2c(O)ccc(O)c2C(=O)c2c(NCCNC(=O)C(O)C(O)C(O)C(O)CO)ccc(NCCNC(=O)C(O)C(O)C(O)C(O)CO)c21` (stereo unspecified) to `CC1=C(C)C(=O)C(C2=C(C3=CC(=O)C(C)=C(C)C3=O)C(=O)C(C)=C(C)C2=O)=CC1=O`, the TGI rises from 0.601 µM to over 20.2 µM.

For `CN1C(=O)C(/C=N/NC(=O)c2cccnc2)C(N)N(C)C1=O` (stereo unspecified), the TGI was over 100 µM.

system: MOLT-4 leukemia; experiment: NCI-60 cell line screen, 48 h

`CN1C(=O)C(/C=N/NC(=O)c2cccnc2)C(N)N(C)C1=O` (stereo unspecified) and `OCc1cc2c([nH]c3ccccc32)c(C(O)CO)n1` (stereo unspecified) cannot be ordered by TGI: over 100 µM for the first, over 100 µM for the second.

In the case of `CC1=C(C)C(=O)C(C2=C(C3=CC(=O)C(C)=C(C)C3=O)C(=O)C(C)=C(C)C2=O)=CC1=O`, the TGI was over 100 µM.

system: NCI-H226 lung; experiment: NCI-60 cell line screen, 48 h

`COc1ccc(Cc2c(N)[nH]c(=O)[nH]c2=O)cc1` and `OCc1cc2c([nH]c3ccccc32)c(C(O)CO)n1` (stereo unspecified) cannot be ordered by TGI: over 100 µM for the first, over 100 µM for the second.

Compared with `O=C1c2c(O)ccc(O)c2C(=O)c2c(NCCNC(=O)C(O)C(O)C(O)C(O)CO)ccc(NCCNC(=O)C(O)C(O)C(O)C(O)CO)c21` (stereo unspecified), `CC1=C(C)C(=O)C(C2=C(C3=CC(=O)C(C)=C(C)C3=O)C(=O)C(C)=C(C)C2=O)=CC1=O` is 61-fold higher in TGI: 0.524 µM for the first, 31.8 µM for the second.

`CN1C(=O)C(/C=N/NC(=O)c2cccnc2)C(N)N(C)C1=O` (stereo unspecified) was tested, and the TGI was over 100 µM.
